Assay results reported in article PMC12144822 (Parasites & Vectors, 2025).

Legend:
Format in all cases: cell-based
Clu-GABA α1β2γ2 = Clu-GABA α1β2γ2 (Canis lupus familiaris, UniProt A0A2H4NNI8+A0A8I3RPG5+E2RSQ0); test: Two-electrode voltage-clamp concentration-activation by the natural agonist, receptor expressed in Xenopus oocytes
Description: (§1) Complementary DNA (cDNA) encoding for the human GABAA proteins α1 (NM_001127645.2), α2 (NM_001377146.1), α3 (KJ620007.1), α4 (NM_000809.4), α5 (NM_000810.4), α6 (NM_000811.3), β2 (XM_054352312.1), β3 (M82919.1), γ2 (NM_000816.3) and δ (NM_000815.5) were ordered from Genewiz (www.genewiz.com; Leipzig, Germany); for each gene, GenBank accession numbers are provided in parentheses. When necessary, silent mutations were introduced to break NheI or XhoI internal restriction sites. The corresponding open reading frames (ORF) were cloned into the pT7-TS transcription vector (introducing X. laevis β-globin untranslated cDNA to the 5’ and 3’ ends of the gene), following a procedure described in detail in a previous publication. The same process was used to obtain cDNA encoding canine GABAA proteins α4 (XM_025435560.1), α6 (XM_022417729.1) and δ (XM_005620414.2). Gene α2 (XM_025435664.1), α3 (XM_549343.5), α5 (XM_545805.6) and β3 (XM_025437408.1) were obtained by PCR; GenBank reference accession numbers are provided in parentheses. RNA extraction, cDNA synthesis and PCR amplification were performed as described previously. Total RNA was extracted from a piece of dog brain (Beagle breed; Canis lupus familiaris) from which 1 µg of total RNA (DNase-treated) was reverse-transcribed to cDNA using a (dT)30 primer and SuperScript III Reverse Transcriptase (Invitrogen, Thermo Fisher Scientific, Waltham, MA, USA). Gene-specific primers (Additional file 1: Table S1) were designed using Primer 3 software (http://frodo.wi.mit.edu/). […] The cycling conditions were: 98 °C for 30 s; then 38 cycles of 98 °C for 10 s, 58 °C for 30 s and 72 °C for 90 s; followed by 72 °C for 5 min. The dog subunits α1 (XM_546261.5), β2 (XM_014113040.1) and γ2 (XM_546259.5) had been previously amplified and described in a study by Rufener et al..
(§2) Defoliculated X. laevis oocytes ordered from Ecocyte Bioscience (Dortmund, Germany) were microinjected with 15–25 nl of cRNA solution (5–50 ng/μl) per oocyte using an automated injector (Roboinject; Multi Channel Systems MCS GmbH, Reutlingen, Germany) and then incubated at 18 °C. All recordings were made 1–5 days post-cRNA injection and were performed at 18 ± 4 °C. Cells were superfused with OR2 medium (NaCl 88 mM, KCl 2.5 mM, HEPES 5 mM, CaCl2•2H2O 1.8 mM, MgCl2•7H2O 1.0 mM, pH 7.4). To ensure that γ2 subunits were integrated into the heteropentamers, we injected fivefold more γ2 than the other subunit cRNAs. Diazepam is a positive allosteric modulator of GABAR only if γ2 subunits are present. Therefore, we used this method to confirm the presence of human and dog GABAA receptor containing the γ2 subunit.
(§3) Voltage-clamp measurements were performed as described by Rufener et al.. Oocytes were impaled with two electrodes filled with 3 M KCl, and their membrane potentials were maintained at − 80 mV throughout the experiment. […] Recordings were performed using an automated process equipped with standard two-electrode voltage-clamp configuration (HiClamp system; Multi Channel Systems MCS GmbH). Data were filtered at 10 Hz, captured at 100 Hz and analyzed using proprietary data acquisition and analysis software in MATLAB (Mathworks Inc., Natick, MA, USA). Additional analyses were performed using Excel (Microsoft, Redmond, WA, USA). […] Graphing the maximum inward currents against the log of agonist concentration produces typical concentration-activation and concentration-inhibition curves, which can be accurately described using individual Hill equations.

Clu-GABA α2β2γ2 = Clu-GABA α2β2γ2 (Canis lupus familiaris, UniProt A0A8I3RPG5+A0A8I3S1N5+E2RSQ0); test: as above
Clu-GABA α2β2γ2, sequence (A0A8I3S1N5 29-451): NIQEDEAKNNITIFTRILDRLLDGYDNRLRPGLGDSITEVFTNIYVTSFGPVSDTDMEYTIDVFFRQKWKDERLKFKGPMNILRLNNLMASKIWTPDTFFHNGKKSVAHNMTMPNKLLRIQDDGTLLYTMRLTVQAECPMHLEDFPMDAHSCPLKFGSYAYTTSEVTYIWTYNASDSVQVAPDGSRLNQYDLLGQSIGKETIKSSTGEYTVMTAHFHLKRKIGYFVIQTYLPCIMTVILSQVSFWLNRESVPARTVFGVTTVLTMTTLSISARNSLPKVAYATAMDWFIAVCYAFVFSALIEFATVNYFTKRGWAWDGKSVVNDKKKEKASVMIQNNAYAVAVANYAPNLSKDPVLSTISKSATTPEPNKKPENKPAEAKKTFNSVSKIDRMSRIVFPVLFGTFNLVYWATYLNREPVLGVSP
Clu-GABA α2β2γ2, sequence (A0A8I3RPG5 25-473): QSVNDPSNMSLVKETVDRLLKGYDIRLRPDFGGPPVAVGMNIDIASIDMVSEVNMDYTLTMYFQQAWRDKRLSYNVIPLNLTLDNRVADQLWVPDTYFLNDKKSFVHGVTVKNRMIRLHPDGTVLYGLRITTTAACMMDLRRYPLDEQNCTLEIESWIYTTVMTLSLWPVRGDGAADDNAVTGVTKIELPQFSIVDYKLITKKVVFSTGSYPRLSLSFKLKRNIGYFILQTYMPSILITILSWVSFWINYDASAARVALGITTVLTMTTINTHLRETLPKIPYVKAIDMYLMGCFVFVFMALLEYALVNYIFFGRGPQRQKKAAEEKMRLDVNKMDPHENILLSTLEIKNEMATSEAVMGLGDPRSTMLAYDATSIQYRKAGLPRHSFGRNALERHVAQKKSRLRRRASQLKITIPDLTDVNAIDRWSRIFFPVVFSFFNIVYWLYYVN
Clu-GABA α2β2γ2, sequence (E2RSQ0 40-467): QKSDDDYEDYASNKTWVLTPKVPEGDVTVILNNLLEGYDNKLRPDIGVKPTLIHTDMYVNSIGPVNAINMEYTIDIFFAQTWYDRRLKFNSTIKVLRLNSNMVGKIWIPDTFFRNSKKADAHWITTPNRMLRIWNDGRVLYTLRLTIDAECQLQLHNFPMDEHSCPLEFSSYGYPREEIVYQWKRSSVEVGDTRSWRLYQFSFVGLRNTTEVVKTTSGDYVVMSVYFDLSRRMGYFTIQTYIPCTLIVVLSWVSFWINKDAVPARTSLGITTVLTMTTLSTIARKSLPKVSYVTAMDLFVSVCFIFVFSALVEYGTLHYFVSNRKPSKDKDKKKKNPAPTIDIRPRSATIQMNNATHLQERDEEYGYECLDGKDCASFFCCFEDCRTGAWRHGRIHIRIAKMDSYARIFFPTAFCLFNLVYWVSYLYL
Description: as §1, §2, §3

Clu-GABA α2β3γ2 = Clu-GABA α2β3γ2 (Canis lupus familiaris, UniProt A0A8I3NUI4+A0A8I3S1N5+E2RSQ0); test: as above
Clu-GABA α2β3γ2, sequence (A0A8I3S1N5 29-451): as the sequence (A0A8I3S1N5 29-451) above
Clu-GABA α2β3γ2, sequence (A0A8I3NUI4 101-496): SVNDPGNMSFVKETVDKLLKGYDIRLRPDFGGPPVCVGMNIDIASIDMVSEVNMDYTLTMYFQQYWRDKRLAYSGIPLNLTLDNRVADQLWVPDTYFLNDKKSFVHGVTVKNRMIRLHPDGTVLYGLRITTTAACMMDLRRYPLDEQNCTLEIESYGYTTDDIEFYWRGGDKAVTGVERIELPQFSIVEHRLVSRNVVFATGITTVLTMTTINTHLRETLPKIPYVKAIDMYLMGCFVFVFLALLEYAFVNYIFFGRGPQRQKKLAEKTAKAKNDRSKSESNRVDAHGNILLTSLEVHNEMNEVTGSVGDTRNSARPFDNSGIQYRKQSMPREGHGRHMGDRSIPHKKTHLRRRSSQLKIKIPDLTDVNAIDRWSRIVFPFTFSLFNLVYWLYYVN
Clu-GABA α2β3γ2, sequence (E2RSQ0 40-467): as the sequence (E2RSQ0 40-467) above
Description: as §1, §2, §3

Clu-GABA α3β2γ2 = Clu-GABA α3β2γ2 (Canis lupus familiaris, UniProt A0A8I3PRS3+A0A8I3RPG5+E2RSQ0); test: as above
Clu-GABA α3β2γ2, sequence (A0A8I3PRS3 29-259): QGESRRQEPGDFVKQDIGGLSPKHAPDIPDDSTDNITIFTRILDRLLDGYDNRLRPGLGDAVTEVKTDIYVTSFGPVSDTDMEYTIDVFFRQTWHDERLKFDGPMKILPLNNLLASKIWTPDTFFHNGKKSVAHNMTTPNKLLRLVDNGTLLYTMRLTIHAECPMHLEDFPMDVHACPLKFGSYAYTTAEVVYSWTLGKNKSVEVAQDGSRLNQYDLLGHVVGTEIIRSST
Clu-GABA α3β2γ2, sequence (A0A8I3RPG5 25-473): as the sequence (A0A8I3RPG5 25-473) above
Clu-GABA α3β2γ2, sequence (E2RSQ0 40-467): as the sequence (E2RSQ0 40-467) above
Description: as §1, §2, §3

Clu-GABA α5β2γ2 = Clu-GABA α5β2γ2 (Canis lupus familiaris, UniProt A0A8I3PC22+A0A8I3RPG5+E2RSQ0); test: as above
Clu-GABA α5β2γ2, sequence (A0A8I3PC22 32-462): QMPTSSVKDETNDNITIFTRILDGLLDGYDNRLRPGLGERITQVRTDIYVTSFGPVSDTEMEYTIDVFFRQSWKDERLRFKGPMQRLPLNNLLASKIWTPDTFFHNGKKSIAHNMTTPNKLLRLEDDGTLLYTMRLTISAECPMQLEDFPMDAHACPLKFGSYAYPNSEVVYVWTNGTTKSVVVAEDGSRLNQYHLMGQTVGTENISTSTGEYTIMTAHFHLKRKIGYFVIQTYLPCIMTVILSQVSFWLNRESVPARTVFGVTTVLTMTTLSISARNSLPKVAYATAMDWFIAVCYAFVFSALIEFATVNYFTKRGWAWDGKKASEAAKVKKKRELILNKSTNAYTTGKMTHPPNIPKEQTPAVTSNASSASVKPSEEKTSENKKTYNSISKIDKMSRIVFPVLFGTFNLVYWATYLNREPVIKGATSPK
Clu-GABA α5β2γ2, sequence (A0A8I3RPG5 25-473): as the sequence (A0A8I3RPG5 25-473) above
Clu-GABA α5β2γ2, sequence (E2RSQ0 40-467): as the sequence (E2RSQ0 40-467) above
Description: as §1, §2, §3

Hsa-GABAR = test: Voltage-clamp concentration-activation, summary over the six human receptors; conditions: concentration-activation curves
Protocol: as §2
Voltage-clamp measurements were performed as described by Rufener et al.. Oocytes were impaled with two electrodes filled with 3 M KCl, and their membrane potentials were maintained at − 80 mV throughout the experiment. […] Recordings were performed using an automated process equipped with standard two-electrode voltage-clamp configuration (HiClamp system; Multi Channel Systems MCS GmbH). Data were filtered at 10 Hz, captured at 100 Hz and analyzed using proprietary data acquisition and analysis software in MATLAB (Mathworks Inc., Natick, MA, USA). […]

[1] = agonist, 10 s applications, Xenopus oocytes, −80 mV

Clu-GABA α1β2γ2, sequence (A0A2H4NNI8 28-456): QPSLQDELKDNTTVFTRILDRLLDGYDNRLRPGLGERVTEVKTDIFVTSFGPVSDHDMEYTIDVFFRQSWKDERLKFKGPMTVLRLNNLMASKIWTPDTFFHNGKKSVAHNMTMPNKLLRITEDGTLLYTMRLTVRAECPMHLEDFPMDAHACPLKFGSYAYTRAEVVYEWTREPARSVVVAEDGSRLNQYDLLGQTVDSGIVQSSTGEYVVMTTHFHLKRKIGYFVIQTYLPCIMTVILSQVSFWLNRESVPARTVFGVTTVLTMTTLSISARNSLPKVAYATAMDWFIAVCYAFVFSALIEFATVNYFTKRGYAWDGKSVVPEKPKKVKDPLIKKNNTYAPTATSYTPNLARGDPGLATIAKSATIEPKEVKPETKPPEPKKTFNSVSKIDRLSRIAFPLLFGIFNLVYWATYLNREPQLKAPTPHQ
Clu-GABA α1β2γ2, sequence (A0A8I3RPG5 25-473): as the sequence (A0A8I3RPG5 25-473) above
Clu-GABA α1β2γ2, sequence (E2RSQ0 40-467): as the sequence (E2RSQ0 40-467) above

NCCCC(=O)O [GABA, gamma-aminobutyric acid]
EC50 (Clu-GABA α1β2γ2; [1]): 10 µM
nH (Hill coefficient) (Clu-GABA α1β2γ2; concentration-activation curve): 1.0
EC50 (Clu-GABA α2β2γ2; [1]): 42 µM
nH (Hill coefficient) (Clu-GABA α2β2γ2; concentration-activation curve): 1.3
EC50 (Clu-GABA α2β3γ2; [1]): 8.6 µM
nH (Hill coefficient) (Clu-GABA α2β3γ2; concentration-activation curve): 1.6
EC50 (Clu-GABA α3β2γ2; [1]): 40.4 µM
nH (Hill coefficient) (Clu-GABA α3β2γ2; concentration-activation curve): 0.8
EC50 (Clu-GABA α5β2γ2; [1]): 8.1 µM
nH (Hill coefficient) (Clu-GABA α5β2γ2; concentration-activation curve): 1.1
Hill coefficients over the six Hsa-GABAR (Hsa-GABAR): higher than 1
